Measurements taken from ChEMBL document CHEMBL1909046, “DrugMatrix in vitro pharmacology data”.

What was measured:
[1] = molecular target: Aldo-keto reductase family 1 member B1 (Rattus norvegicus, UniProt P07943); assay: biochemical; assay type: tissue-based, Lens of camera-type eye;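 also: inhibition of aldose reductase enzyme activity, measured with DL-glyceraldehyde as the substrate; in other assays of this panel Not Active means under 50% inhibition at 10 µM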
[2] = molecular target: Sodium-dependent dopamine transporter (Homo sapiens, UniProt Q01959); assay: DRUGMATRIX: Dopamine Transporter radioligand binding (ligand: [125I] RTI-55); assay type: cell membranes, CHO-K1, Membrane; details: Not Active = under 50% inhibition at 10 µM; for Ki: read-out: Ki
Chain of Sodium-dependent dopamine transporter (Q01959 whole entry): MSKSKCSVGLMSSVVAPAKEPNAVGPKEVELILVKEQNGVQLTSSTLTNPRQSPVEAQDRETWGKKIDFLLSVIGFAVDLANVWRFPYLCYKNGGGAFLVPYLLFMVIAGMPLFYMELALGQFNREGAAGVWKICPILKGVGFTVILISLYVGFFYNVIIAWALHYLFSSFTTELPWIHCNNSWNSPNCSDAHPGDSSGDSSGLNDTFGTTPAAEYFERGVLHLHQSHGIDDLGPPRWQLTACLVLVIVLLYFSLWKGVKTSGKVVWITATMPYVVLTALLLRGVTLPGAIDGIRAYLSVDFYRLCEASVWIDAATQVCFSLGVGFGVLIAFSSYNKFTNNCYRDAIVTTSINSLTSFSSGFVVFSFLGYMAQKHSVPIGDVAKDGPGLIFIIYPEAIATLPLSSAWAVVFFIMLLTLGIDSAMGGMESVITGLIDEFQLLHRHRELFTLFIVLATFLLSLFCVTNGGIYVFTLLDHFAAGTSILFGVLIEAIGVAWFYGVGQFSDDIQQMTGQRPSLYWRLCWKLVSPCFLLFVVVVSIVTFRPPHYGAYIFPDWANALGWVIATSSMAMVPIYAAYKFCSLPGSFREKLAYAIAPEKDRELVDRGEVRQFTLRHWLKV

[3] = DRUGMATRIX: GABAA, Muscimol, Central radioligand binding (ligand: [3H] Muscimol); assay type: cell membranes, Rattus norvegicus, Wistar, Brain, Membrane; details: Not Active = under 50% inhibition at 10 µM
[4] = DRUGMATRIX: GABAA, Chloride Channel, TBOB radioligand binding (ligand: [3H] TBOB); assay type: cell membranes, Rattus norvegicus, Wistar, Cerebral cortex, Membrane; details: Not Active = under 50% inhibition at 10 µM
Glycine receptor = Glycine receptor (Rattus norvegicus, UniProt P22771+P24524+P07727+P20781); assay type: cell membranes, Wistar, Spinal cord, Membrane; also: in other assays of this panel Not Active means under 50% inhibition at 10 µM
[5] = molecular target: Protein kinase C alpha type (Homo sapiens, UniProt P17252); assay type: cell-based; details: sf9;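 also: inhibition of PKCalpha kinase activity measured in an enzyme assay with histone as the phosphorylation substrate; in other assays of this panel Not Active means under 50% inhibition at 10 µM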
[6] = molecular target: 5-hydroxytryptamine receptor 1B (Rattus norvegicus, UniProt P28564); assay type: cell membranes, Wistar, Cerebral cortex, Membrane; also: in other assays of this panel Not Active means under 50% inhibition at 10 µM
Chain of 5-hydroxytryptamine receptor 1B (P28564 whole entry): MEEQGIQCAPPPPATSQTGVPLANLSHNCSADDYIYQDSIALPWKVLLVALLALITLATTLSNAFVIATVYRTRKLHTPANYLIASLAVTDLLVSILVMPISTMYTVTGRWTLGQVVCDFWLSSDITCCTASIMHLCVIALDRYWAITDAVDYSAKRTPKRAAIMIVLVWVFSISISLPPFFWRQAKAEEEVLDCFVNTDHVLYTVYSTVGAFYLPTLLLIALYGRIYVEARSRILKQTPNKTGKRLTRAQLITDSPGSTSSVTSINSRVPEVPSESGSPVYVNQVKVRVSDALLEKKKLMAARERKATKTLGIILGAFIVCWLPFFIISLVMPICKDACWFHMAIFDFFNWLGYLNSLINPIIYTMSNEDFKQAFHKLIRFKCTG

SMILES	IC50 [1]	IC50 ([2]; cho-k1)	IC50 [3]	Ki [3]	IC50 [4]	Ki [4]	IC50 (Glycine receptor)	IC50 [5]	IC50 [6]	IC50 ([6]; read-out: IC50) [µM]	Ki ([6]; read-out: Ki) [µM]	IC50 ([2]; read-out: IC50) [µM]	Ki [2] [µM]	IC50 ([1]; read-out: IC50) [µM]
C[C@@H]1C[C@@H]([C@H](O)CC2CC(=O)NC(=O)C2)C(=O)[C@@H](C)C1 [CYCLOHEXIMIDE]	Not Active	Not Active	Not Active	Not Active	Not Active	Not Active	Not Active	Not Active	Not Active	–	–	–	–	–
CN(C)/N=N/c1[nH]cnc1C(N)=O [DACARBAZINE]	Not Active	Not Active	Not Active	Not Active	Not Active	Not Active	Not Active	Not Active	Not Active	–	–	–	–	–
COc1ccc2c(c1)[C@]13CCCC[C@@H]1[C@H](C2)N(C)CC3 [DEXTROMETHORPHAN]	Not Active	Not Active	Not Active	Not Active	Not Active	Not Active	Not Active	Not Active	Not Active	–	–	–	–	–
CC(=O)Nc1c(I)c(NC(C)=O)c(I)c(C(=O)O)c1I [DIATRIZOIC ACID]	Not Active	Not Active	Not Active	Not Active	Not Active	Not Active	Not Active	Not Active	Not Active	–	–	–	–	–
COP(=O)(OC)OC=C(Cl)Cl [DICHLORVOS]	Not Active	Not Active	Not Active	Not Active	Not Active	Not Active	Not Active	Not Active	Not Active	–	–	–	–	–
O=C(O)Cc1ccccc1Nc1c(Cl)cccc1Cl [DICLOFENAC]	Not Active	Not Active	Not Active	Not Active	Not Active	Not Active	Not Active	Not Active	Not Active	–	–	–	–	–
C[C@H]1O[C@@H](O[C@H]2[C@@H](O)C[C@H](O[C@H]3[C@@H](O)C[C@H](O[C@H]4CC[C@@]5(C)[C@H](CC[C@@H]6[C@@H]5CC[C@]5(C)[C@@H](C7=CC(=O)OC7)CC[C@]65O)C4)O[C@@H]3C)O[C@@H]2C)C[C@H](O)[C@@H]1O [DIGITOXIN]	Not Active	Not Active	Not Active	Not Active	Not Active	Not Active	Not Active	Not Active	Not Active	–	–	–	–	–
CCN1CC(CCN2CCOCC2)C(c2ccccc2)(c2ccccc2)C1=O (stereo not given) [DOXAPRAM]	Not Active	Not Active	Not Active	Not Active	Not Active	Not Active	Not Active	Not Active	Not Active	–	–	–	–	–
Cn1c(=O)c2c(ncn2CC2OCCO2)n(C)c1=O [DOXOFYLLINE]	Not Active	Not Active	Not Active	Not Active	Not Active	Not Active	Not Active	Not Active	Not Active	–	–	–	–	–
COc1cccc2c1C(=O)c1c(O)c3c(c(O)c1C2=O)C[C@@](O)(C(=O)CO)C[C@@H]3O[C@H]1C[C@H](N)[C@H](O)[C@H](C)O1 [DOXORUBICIN]	Not Active	Not Active	Not Active	Not Active	Not Active	Not Active	Not Active	Not Active	–	34.5	15.7	–	–	–
COc1cccc2c1C(=O)c1c(O)c3c(c(O)c1C2=O)C[C@@](O)(C(=O)CO)C[C@@H]3O[C@H]1C[C@H](N)[C@@H](O)[C@H](C)O1 [EPIRUBICIN]	Not Active	Not Active	Not Active	Not Active	Not Active	Not Active	Not Active	Not Active	Not Active	–	–	–	–	–
C[C@]12CC[C@@H]3c4ccc(OC(=O)c5ccccc5)cc4CC[C@H]3[C@@H]1CC[C@@H]2O [ESTRADIOL BENZOATE]	Not Active	Not Active	Not Active	Not Active	Not Active	Not Active	Not Active	Not Active	Not Active	–	–	–	–	–
C[C@]12CC[C@@H]3c4ccc(O)cc4CC[C@H]3[C@@H]1CC[C@@H]2O [ESTRADIOL]	Not Active	–	Not Active	Not Active	Not Active	Not Active	Not Active	Not Active	Not Active	–	–	14.9	11.8	–
CC[C@@H](CO)NCCN[C@@H](CC)CO [ETHAMBUTOL]	Not Active	Not Active	Not Active	Not Active	Not Active	Not Active	Not Active	Not Active	Not Active	–	–	–	–	–
CC1(C)O[C@@H]2C[C@H]3[C@@H]4C[C@H](F)C5=CC(=O)C=C[C@]5(C)[C@H]4[C@@H](O)C[C@]3(C)[C@]2(C(=O)CO)O1 [FLUNISOLIDE]	Not Active	Not Active	Not Active	Not Active	Not Active	Not Active	Not Active	Not Active	Not Active	–	–	–	–	–
CC1(C)O[C@@H]2C[C@H]3[C@@H]4C[C@H](F)C5=CC(=O)C=C[C@]5(C)[C@@]4(F)[C@@H](O)C[C@]3(C)[C@]2(C(=O)CO)O1 [FLUOCINOLONE ACETONIDE]	Not Active	Not Active	Not Active	Not Active	Not Active	Not Active	Not Active	Not Active	Not Active	–	–	–	–	–
CC1(C)O[C@@H]2C[C@H]3[C@@H]4C[C@H](F)C5=CC(=O)CC[C@]5(C)[C@H]4[C@@H](O)C[C@]3(C)[C@]2(C(=O)CO)O1 [FLURANDRENOLIDE]	Not Active	Not Active	Not Active	Not Active	Not Active	Not Active	Not Active	Not Active	Not Active	–	–	–	–	–
CN(C)c1ccc(C(=C2C=CC(=[N+](C)C)C=C2)c2ccc(N(C)C)cc2)cc1.[Cl-] [GENTIAN VIOLET]	Not Active	–	Not Active	Not Active	Not Active	Not Active	Not Active	Not Active	Not Active	–	–	4.07	3.23	–
Cc1ccc(S(=O)(=O)NC(=O)NN2CC3CCCC3C2)cc1 (stereo not given) [GLICLAZIDE]	Not Active	Not Active	Not Active	Not Active	Not Active	Not Active	Not Active	Not Active	Not Active	–	–	–	–	–
NC(=O)NO [HYDROXYUREA]	Not Active	Not Active	Not Active	Not Active	Not Active	Not Active	Not Active	Not Active	Not Active	–	–	–	–	–
CC(C)Cc1ccc(C(C)C(=O)O)cc1 (stereo not given) [IBUPROFEN]	Not Active	Not Active	Not Active	Not Active	Not Active	Not Active	Not Active	Not Active	Not Active	–	–	–	–	–
COc1ccc2c(c1)c(CC(=O)O)c(C)n2C(=O)c1ccc(Cl)cc1 [INDOMETHACIN]	–	Not Active	Not Active	Not Active	Not Active	Not Active	Not Active	Not Active	Not Active	–	–	–	–	3.63
CCc1c2c(nc3ccc(OC(=O)N4CCC(N5CCCCC5)CC4)cc13)-c1cc3c(c(=O)n1C2)COC(=O)[C@]3(O)CC [IRINOTECAN]	Not Active	Not Active	Not Active	Not Active	Not Active	Not Active	Not Active	Not Active	Not Active	–	–	–	–	–
CC(C(=O)O)c1cccc(C(=O)c2ccccc2)c1 (stereo not given) [KETOPROFEN]	Not Active	Not Active	Not Active	Not Active	Not Active	Not Active	Not Active	Not Active	Not Active	–	–	–	–	–
Nc1ccn([C@@H]2CS[C@H](CO)O2)c(=O)n1 [LAMIVUDINE]	Not Active	Not Active	Not Active	Not Active	Not Active	Not Active	Not Active	Not Active	Not Active	–	–	–	–	–
O=S(=O)([O-])CCS.[Na+] [MESNA]	Not Active	Not Active	Not Active	Not Active	Not Active	Not Active	Not Active	Not Active	Not Active	–	–	–	–	–
C#C[C@]1(O)CC[C@H]2[C@@H]3CCc4cc(OC)ccc4[C@H]3CC[C@@]21C [MESTRANOL]	Not Active	Not Active	Not Active	Not Active	Not Active	Not Active	Not Active	Not Active	Not Active	–	–	–	–	–
CC(=O)Nc1cccc(O)c1 [METACETAMOL]	Not Active	Not Active	Not Active	Not Active	Not Active	Not Active	Not Active	Not Active	Not Active	–	–	–	–	–
